According to patent US9309222B2, “Phenyl linked quinolinyl modulators of RORγt” (Janssen Pharmaceutica NV, priority 2012, dated 2016):
Values joined by “and” are separate entries in the source; they are usually repeats but may differ in a detail not shown here. Identical values can stand only once. Counter-ions that a name gives are not always drawn.

Experiments:
[1] = test system: IL-17 production by CD4 T cells; assay: Human Th17 assay (IL-17 production by CD4 T cells under Th17 differentiation conditions); type: cell-based; settings: IL-17 in supernatant after 3 days
Procedure: The human Th17 assay tests the effect of RORγt modulatory compounds on IL-17 production by CD4 T cells under conditions which favor Th17 differentiation. Total CD4^+ T cells were isolated from the peripheral blood mononuclear cells (PBMC) of healthy donors using a CD4^+ T cell isolation kit II, following the manufacturer's instructions (Miltenyi Biotec). […] 50 μL of compound at titrated concentrations in DMSO were added into each well at final DMSO concentration at 0.2%. Cells were incubated for 1 hour, then 50 μL of Th17 cell differentiation medium was added to each well. The final concentrations of antibodies and cytokines (R&D Systems) in differentiation medium were: 3×10^6/mL anti-CD3/CD28 beads (prepared using human T cell activation/expansion kit, Miltenyi Biotec), 10 μg/mL anti-IL4, 10 μg/mL anti-IFNγ, 10 ng/mL IL113, 10 ng/mL IL23, 50 ng/mL IL6, 3 ng/mL TGFβ and 20 U/mL IL2. Cells were cultured at 37° C. and 5% CO2 for 3 days. Supernatants were collected and the accumulated IL-17 in culture was measured by using MULTI-SPOT® Cytokine Plate following manufacture's instruction (Meso Scale Discovery). The plate was read using Sector Imager 6000, and IL-17 concentration was extrapolated from the standard curve. The IC50s were determined by GraphPad.

[2] = molecular target: T1, human RORγt ligand binding domain (RORγt LBD) (Homo sapiens, UniProt P51449); assay: RORγt ThermoFluor assay (thermal shift, ligand binding affinity); settings: estimated from concentration response of thermal shift
T1 construct: His-tag (N); TurboTEV protease cleavage site (ENLYFQG) (N); made in house; host or cells: E. coli (pHIS1, modified pET vector)
T1 sequence (P51449 with tags, fused parts or gaps): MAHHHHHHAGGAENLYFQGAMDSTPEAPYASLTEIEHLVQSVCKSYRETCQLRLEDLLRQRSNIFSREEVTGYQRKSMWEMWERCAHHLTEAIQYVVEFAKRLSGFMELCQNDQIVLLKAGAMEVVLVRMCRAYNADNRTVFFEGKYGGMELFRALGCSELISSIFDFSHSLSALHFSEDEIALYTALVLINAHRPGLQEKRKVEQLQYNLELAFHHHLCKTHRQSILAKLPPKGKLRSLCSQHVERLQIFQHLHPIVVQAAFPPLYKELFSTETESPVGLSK
How it was run: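 Thermal shift of 0.065 mg/mL RORγt with 60 μM 1,8-ANS in 100 mM Hepes pH 7.0, 10 mM NaCl, 2.5 mM GSH, 0.002% Tween-20. Compounds in 1:2 series from 10 mM DMSO stock. Dye fluorescence (500 nm emission) tracked versus temperature; ΔTm used to derive KD.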

human RORγt LBD = molecular target: T2, human RORγt LBD (Homo sapiens, UniProt P51449); assay: RORγt reporter assay (GAL4-RORγt LBD luciferase in HEK293T cells); type: cell-based; settings: for IC50 / RORγt reporter Assay, % inhibition @ 6 μM: HEK293T cells; for IC50: 24 hours compound treatment; for inhibition at 6 µM: HEK-293T, read-out: RORγt reporter Assay, % inhibition @ 6 μM, HEK293T cells, 6 μM compound; for RORγt reporter Assay, % inhibition @ 6 μM: 6 μM compound
T2 construct: expressed in transfected cells
T2 sequence (P51449 258-518): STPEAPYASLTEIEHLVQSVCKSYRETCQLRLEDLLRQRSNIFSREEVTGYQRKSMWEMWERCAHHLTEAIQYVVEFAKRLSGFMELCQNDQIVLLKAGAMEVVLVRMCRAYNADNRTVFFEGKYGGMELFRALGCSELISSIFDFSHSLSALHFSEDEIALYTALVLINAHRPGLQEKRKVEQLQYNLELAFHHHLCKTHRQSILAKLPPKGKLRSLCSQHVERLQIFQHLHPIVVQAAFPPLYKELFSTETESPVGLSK
How it was run: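 Read-out is the firefly-to-renilla luciferase ratio versus compound concentration, after 24 h compound exposure of cells in phenol-red-free DMEM/5% lipid-reduced FCS. Cells were HEK293T bulk-transfected with a GAL4-responsive firefly reporter (pGL4.31) and GAL4 DBD–wild-type human RORγt LBD fusion (pBIND, renilla as transfection/viability control).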

Structure (SMILES) | IC50 ([1]; Homo sapiens, CD4+ T, 72 h) | Kd [2] | IC50 (human RORγt LBD) | inhibition at 6 µM (human RORγt LBD) | RORγt reporter Assay, % inhibition @ 6 μM (human RORγt LBD) | IC50 [1]
OC(c1ccc(Cl)cc1)(c1cccnc1)c1ccc2nc(Cl)c(-c3ccccc3)c(Cl)c2c1 (stereo not shown) [Example 17, (4-Chlorophenyl)(2,4-dichloro-3-phenylquinolin-6-yl)(pyridin-3-yl)methanol] | 940 nM | 210 nM | 270 nM | 102% |  | 
Cn1cncc1C(O)(c1ccc(Cl)cc1)c1ccc2nc(Cl)c(-c3ccccc3)c(Cl)c2c1 (single isomer, unassigned) [Example 119c, (4-Chlorophenyl)(2,4-dichloro-3-phenylquinolin-6-yl)(1-methyl-1H-imidazol-5-yl)methanol] | 700 nM |  |  |  |  | 
Cc1cc(C(O)(c2ccc3nc(Cl)c(-c4ccccc4)c(Cl)c3c2)c2cncn2C)ccn1 (stereo not shown) [Example 67, (2,4-Dichloro-3-phenylquinolin-6-yl)(1-methyl-1H-imidazol-5-yl)(2-methylpyridin-4-yl)methanol•TFA] | 27 nM |  |  |  |  | 
OC(c1ccccc1)(c1cccnc1)c1ccc2nc(Cl)c(-c3ccccc3)c(Cl)c2c1 (stereo not shown) [Example 2, (2,4-Dichloro-3-phenylquinolin-6-yl)(phenyl)(pyridin-3-yl)methanol] | 620 nM |  |  |  |  | ~700 nM
Cn1cncc1C(O)(c1cccnc1)c1ccc2nc(Cl)c(-c3ccccc3)c(Cl)c2c1 (stereo not shown) [Example 49, (2,4-Dichloro-3-phenylquinolin-6-yl)(1-methyl-1H-imidazol-5-yl)(pyridin-3-yl)methanol] | 410 nM |  |  |  |  | 
Cn1cncc1C(O)(c1ccc(Cl)cc1)c1ccc2nc(Cl)c(-c3ccccc3)c(Cl)c2c1 (single isomer, unassigned) [Example 119b, (4-Chlorophenyl)(2,4-dichloro-3-phenylquinolin-6-yl)(1-methyl-1H-imidazol-5-yl)methanol] |  |  |  |  |  | 15000 nM
Cn1cncc1C(O)(c1ccncc1)c1ccc2nc(Cl)c(-c3ccccc3)c(Cl)c2c1 (stereo not shown) [Example 16, (2,4-Dichloro-3-phenylquinolin-6-yl)(1-methyl-1H-imidazol-5-yl)(pyridin-4-yl)methanol] | 130 nM |  |  |  |  | 
Cn1cncc1C(O)(c1ccnc(F)c1)c1ccc2nc(Cl)c(-c3ccccc3)c(Cl)c2c1 (stereo not shown) [Example 86, (2,4-Dichloro-3-phenylquinolin-6-yl)(2-fluoropyridin-4-yl)(1-methyl-1H-imidazol-5-yl)methanol•TFA] | 37 nM |  |  |  |  | 

Continued, in another order:

IC50 ([1]; Homo sapiens, CD4+ T, 72 h) | Kd [2] | IC50 (human RORγt LBD) | inhibition at 6 µM (human RORγt LBD) | RORγt reporter Assay, % inhibition @ 6 μM (human RORγt LBD) | Structure (SMILES) | IC50 [1]
80 nM | 6.2 nM | 160 nM | 100% |  | COc1ccc(C(O)(c2ccc3nc(Cl)c(-c4ccccc4)c(Cl)c3c2)c2c(C)noc2C)cn1 (stereo not shown) [Example 129, (2,4-Dichloro-3-phenylquinolin-6-yl)(3,5-dimethylisoxazol-4-yl)(6-methoxypyridin-3-yl)methanol•TFA] | 
~900 nM | 120 nM | 860 nM | 91% |  | OC(c1ccncc1)(c1ccncc1)c1ccc2nc(Cl)c(-c3ccccc3)c(Cl)c2c1 [Example 21, (2,4-Dichloro-3-phenylquinolin-6-yl)(dipyridin-4-yl)methanol•TFA] | 
520 nM | 130 nM | 330 nM | 104% |  | Cn1cncc1C(O)(c1ccncc1)c1ccc2nc(N3CCOCC3)c(-c3ccccc3)c(Cl)c2c1 (stereo not shown) [Example 20, (4-Chloro-2-morpholin-4-yl-3-phenylquinolin-6-yl)(1-methyl-1H-imidazol-5-yl)pyridin-4-ylmethanol•TFA] | 
150 nM | 41 nM | 140 nM | 104% |  | CCN(CC)c1nc2ccc(C(O)(c3ccncc3)c3cncn3C)cc2c(C)c1-c1ccccc1 (stereo not shown) [Example 102, [2-(Diethylamino)-4-methyl-3-phenylquinolin-6-yl](1-methyl-1H-imidazol-5-yl)pyridin-4-ylmethanol•TFA] | 
130 nM | 16 nM | 48 nM | 103% |  | Cc1cc(C(O)(c2ccc3nc(Cl)c(-c4ccccc4)c(Cl)c3c2)c2cncn2C)on1 (stereo not shown) [Example 132, (2,4-Dichloro-3-phenylquinolin-6-yl)(1-methyl-1H-imidazol-5-yl)(3-methylisoxazol-5-yl)methanol•TFA] | 
700 nM | 41 nM | 260 nM |  | 97% | Cc1cc(C(O)(c2ccc(C(F)(F)F)nc2)c2cncn2C)cc2c(C#N)c(-c3ccc(F)cc3)c(C#N)nc12 (single isomer, unassigned) [Example 184c, 3-(4-Fluorophenyl)-6-(hydroxy(1-methyl-1H-imidazol-5-yl)(6-(trifluoromethyl)pyridin-3-yl)methyl)-8-methylquinoline-2,4-dicarbonitrile] | 
1200 nM | 620 nM | 210 nM | 99% |  | Cn1c(C(O)(c2ccc(Cl)cc2)c2ccc3nc(Cl)c(-c4ccccc4)c(Cl)c3c2)cnc1Cl (stereo not shown) [Example 141, (2-Chloro-1-methyl-1H-imidazol-5-yl)(4-chlorophenyl)(2,4-dichloro-3-phenylquinolin-6-yl)methanol] | 
7 nM | 1.5 nM |  | 94% |  | Cn1nncc1C(O)(c1ccc2nc(C(F)(F)F)c(-c3ccccc3)c(C(F)(F)F)c2c1)c1cnnn1C [Example 182, Bis(1-methyl-1H-1,2,3-triazol-5-yl)(3-phenyl-2,4-bis(trifluoromethyl)quinolin-6-yl)methanol] | 
310 nM | 68 nM | 320 nM |  | 95% | Cc1cc(C(O)(c2ccc(C(F)(F)F)nc2)c2cncn2C)cc2c(C#N)c(-c3cccc(F)c3)c(C#N)nc12 (single isomer, unassigned) [Example 176c, 3-(3-Fluorophenyl)-6-(hydroxy(1-methyl-1H-imidazol-5-yl)(6-(trifluoromethyl)pyridin-3-yl)methyl)-8-methylquinoline-2,4-dicarbonitrile] | 
300 nM | 34 nM | 160 nM | 99% |  | CC(C)Oc1nc2ccc(C(O)(c3ccncc3)c3cncn3C)cc2c(Cl)c1-c1ccccc1 (stereo not shown) [Example 89, [4-Chloro-2-(1-methylethoxy)-3-phenylquinolin-6-yl](1-methyl-1H-imidazol-5-yl)pyridin-4-ylmethanol•TFA] | 
48 nM | 3.9 nM | 5.8 nM | 103% |  | COc1cc(C(O)(c2ccc3nc(Cl)c(-c4ccccc4)c(Cl)c3c2)c2cncn2C)ccn1 (stereo not shown) [Example 68, (2,4-Dichloro-3-phenylquinolin-6-yl)(2-methoxypyridin-4-yl)(1-methyl-1H-imidazol-5-yl)methanol•TFA] | 
36 nM | 5 nM | 7 nM and ~9 nM and < 50 nM | 105% |  | CCN(C)c1nc2ccc(C(O)(c3ccncc3)c3cncn3C)cc2c(Cl)c1-c1ccccc1 (stereo not shown) [Example 50, {4-Chloro-2-[ethyl(methyl)amino]-3-phenylquinolin-6-yl}(1-methyl-1H-imidazol-5-yl)pyridin-4-ylmethanol•TFA] | 
130 nM |  |  |  | 95% | Cn1cncc1C(O)(c1ccc(C(F)(F)F)nc1)c1ccc2nc(C(F)(F)F)c(-c3ccccc3)c(C#N)c2c1 (single isomer, unassigned) [Example 173c, 6-(Hydroxy(1-methyl-1H-imidazol-5-yl)(6-(trifluoromethyl)pyridin-3-yl)methyl)-3-phenyl-2-(trifluoromethyl)quinoline-4-carbonitrile] | 
